Measured values reported in PMC9456187, “The Ambivalence of Connexin43 Gap Peptides in Cardioprotection of the Isolated Heart against Ischemic Injury” (International Journal of Molecular Sciences, 2022).

Tests used:
[1] = system: isolated perfused male rat hearts; experiment: Left ventricular function (LVDP, EDP) after ischemia-reperfusion, Langendorff-perfused heart; parameters: species or system male Wistar rat; details: % recovery of initial preischemic LVDP after 30 min ischemia and 120 min reperfusion; peptide during IPC
Experimental: (§1) All experiments were approved by the Norwegian animal research authority and were performed according to the Norwegian Animal Welfare Act and the European Convention for the Protection of Vertebrate Animals Used for Experimental and other Scientific Purposes (ETS No. 123 and 2010/63/EU). Male Wistar rats 250–350 g (Charles River, UK) were anesthetized with pentobarbital (100 mg/kg i.p.) and heparinized (300 IU i.p.), the chest opened and the heart removed.
(§2) The heart was immediately submerged in an ice-cold buffer and quickly mounted on the perfusion apparatus, where it was perfused with the Krebs–Henseleit buffer (gassed with 5% CO2 and 95%O2) in a constant pressure Langendorff setup (100 cm H2O). The temperature was kept at 37 °C during the whole experiment by keeping the heart submerged in a heated buffer. Left ventricular pressure was recorded using a balloon catheter connected to a pressure transducer. Coronary flow was measured by timed collections of perfusate.
(§3) Hearts were stabilized for 15 min, then either subjected to 30 min of global ischemia and 2 h of reperfusion or preconditioning with 3 cycles of 5 min of ischemia and reperfusion (IPC) before 30 min of global ischemia and 2 h of reperfusion. Care was taken to secure controls corresponding in time and rat batch with the intervention experiments. […]

[2] = system: isolated perfused male rat hearts; experiment: Coronary flow in isolated perfused heart; parameters: species or system male Wistar rat; details: before 30 min ischemia; Gap peptide in buffer
Experimental: as §1, §2, §3

[3] = system: subsarcolemmal mitochondria isolated from perfused rat hearts; experiment: High-resolution respirometry of isolated subsarcolemmal mitochondria; format: biochemical, male Wistar rat; details: pH 7.4, 37 °C; for Oxygen flux, +Oligomycin: oligomycin 4 µg/mL; for Oxygen flux, +Oligomycin / Oxygen flux, +ADP 50 µM / Oxygen flux, Glutamate + Maleate / Oxygen flux, OXPHOS Saturating +ADP 2.5 mM / Oxygen flux, State 4 (LEAK ATP): mean ± SEM, n = 3; for Oxygen flux, +ADP 50 µM / Oxygen flux, Glutamate + Maleate / Oxygen flux, OXPHOS Saturating +ADP 2.5 mM / Oxygen flux, State 4 (LEAK ATP): 10 min preincubation on ice
Experimental: as §1
Hearts were control perfused or subjected to IPC. Isolation of mitochondria was performed using the procedure described by Palmer et al. (1977) with minor modifications. All procedures were performed on ice or at 4 °C. Briefly, the ventricles were removed, weighed and placed in the buffer containing (in mM): 100 KCl, 50 MOPS, 1 EGTA, 5 MgSO4, 1 ATP and pH 7.4. Heart tissue was minced with scissors in a small volume of buffer. Buffer plus bovine serum albumin BSA (2 mg/mL) were added, and the tissue suspension was homogenized with Polytron for 7 s and thereafter with two strokes of a Potter-Elvehjem homogenizer (Glas-Col, Terre Haute, IN, USA) and centrifuged at 590× g for 10 min at 4 °C. The supernatant was filtered through a nylon net (NITEX 300 lm; Yulee, FL, USA). Supernatants now containing mitochondria mainly from the subsarcolemmal compartment (SSM fraction) were centrifuged at 3000× g for 10 min at 4 °C, and the SSM pellet was again resuspended in the buffer plus BSA and centrifuged at 3000× g for 10 min. The pellet was resuspended in the buffer containing (in mM): 100 KCl, 50 MOPS 50, 0.5 EGTA and pH 7.4 and centrifuged at 3000× g for 10 min at 4 °C. The final pellet was resuspended in this buffer and left on ice for 30 min for stabilization of membranes.
Measurement of mitochondrial oxygen consumption was performed in an oxygraph (Oxygraph 2k; Oroboros Instruments, Innsbruck, Austria) using a respiration medium [100 KCl; 50 MOPS; 1 EGTA; 5 KH2PO4 (all in mM); BSA 1 mg mL) and pH = 7.4] in a closed 2 mL chamber at 37 °C. Glutamate (5.0 mM) and malate (2.5 mM) were used as substrates. After obtaining stable respiration O2 flux (nmol O2/min/mL), ADP was added to a final concentration of 50 µM to measure coupled respiration. After depletion of ADP and stable respiration, a saturating ADP amount (2.5 mM) was added to obtain max coupled respiration (OxPhos). Finally, oligomycin was added to a final concentration of 4 µg/mL to inhibit the ATP-synthase, and a stable state oligomycin measurement was recorded. At the end of the experiments, protein content was estimated by the Bradford method, and citrate synthase activity was measured. Results of O2 flux measurements (nmol O2/min) were normalized to citrate synthase activity (IU µmol/min) in the sample. Phosphate/oxygen ratio (P/O ratio) was calculated as ADP phosphorylated divided by oxygen molecules consumed. The respiratory control ratio (RCR) was calculated as the ratio between max state 3 (OxPhos) and […].
In order to assess the effect of Gap26 and Gap27 on mitochondrial respiration, peptides in concentrations 0.5, 5.0 and 50.0 µM were added to the isolated mitochondria. After 10 min preincubation on ice 60 µL of the suspension was added to the oxygraphy, and peptide concentration was adjusted to the new volume, so the final peptide concentration was the same during the whole experiment. Each subgroup consisted of samples from 3–4 hearts, and care was taken to minimize variability by testing the different Gap peptides and concentrations concomitantly in every heart at the same time using multiple respiratory chambers.
Statistical analysis was performed by SigmaPlot version 14.5 (Systate Software Inc. Chicago, IL, USA) using one-way or two-way ANOVA followed by the Holms Sidac method as a post hoc test when appropriate. Results are presented as mean ± SEM except for binding kinetics, which is presented as mean ± SD (n = 3–4).

[4] = control hearts (crt), peptide 0.5 µM
[5] = control hearts (crt), peptide 5 µM
[6] = control hearts (crt), peptide 50 µM

Question: What does the source list for KQIEKKFK [Gap19]?
Answer: Recovery of LVDP, Gap peptide combined with IPC (in words) [1]: significant increase in % recovery of LVDP (p < 0.05); Coronary flow at baseline (in words) [2]: significantly reduced with Gap19 compared to control (p < 0.05); Mitochondrial respiration / average oxygen flux, RCR or P/O ratio (in words) ([3]; Gap peptides 0.5, 5, 50 µM added in vitro to isolated mitochondria from control or IPC hearts, glutamate + malate): not able to detect significant change; Oxygen flux, +Oligomycin ([3]; IPC hearts, peptide 0.5 µM): 37.8 ± 7.4 nmol O2 (µmol IU CS Activity)^−1; Oxygen flux, +ADP 50 µM ([3]; IPC hearts, peptide 0.5 µM): 69.8 ± 28.0 nmol O2 (µmol IU CS Activity)^−1; Oxygen flux, Glutamate + Maleate ([3]; IPC hearts, peptide 0.5 µM): 15.2 ± 4.2 nmol O2 (µmol IU CS Activity)^−1; Oxygen flux, OXPHOS Saturating +ADP 2.5 mM ([3]; IPC hearts, peptide 0.5 µM): 92.5 ± 25.1 nmol O2 (µmol IU CS Activity)^−1; Oxygen flux, State 4 (LEAK ATP) ([3]; IPC hearts, peptide 0.5 µM): 21.2 ± 5.3 nmol O2 (µmol IU CS Activity)^−1; Oxygen flux, +Oligomycin ([3]; IPC hearts, peptide 5 µM): 39.0 ± 3.7 nmol O2 (µmol IU CS Activity)^−1; Oxygen flux, +ADP 50 µM ([3]; IPC hearts, peptide 5 µM): 71.4 ± 7.5 nmol O2 (µmol IU CS Activity)^−1; Oxygen flux, Glutamate + Maleate ([3]; IPC hearts, peptide 5 µM): 15.9 ± 1.7 nmol O2 (µmol IU CS Activity)^−1; Oxygen flux, OXPHOS Saturating +ADP 2.5 mM ([3]; IPC hearts, peptide 5 µM): 98.3 ± 10.5 nmol O2 (µmol IU CS Activity)^−1; Oxygen flux, State 4 (LEAK ATP) ([3]; IPC hearts, peptide 5 µM): 21.0 ± 2.6 nmol O2 (µmol IU CS Activity)^−1; Oxygen flux, +Oligomycin ([3]; IPC hearts, peptide 50 µM): 44.2 ± 7.5 nmol O2 (µmol IU CS Activity)^−1; Oxygen flux, +ADP 50 µM ([3]; IPC hearts, peptide 50 µM): 76.8 ± 21.6 nmol O2 (µmol IU CS Activity)^−1; Oxygen flux, Glutamate + Maleate ([3]; IPC hearts, peptide 50 µM): 19.6 ± 6.1 nmol O2 (µmol IU CS Activity)^−1; Oxygen flux, OXPHOS Saturating +ADP 2.5 mM ([3]; IPC hearts, peptide 50 µM): 116.2 ± 37.7 nmol O2 (µmol IU CS Activity)^−1; Oxygen flux, State 4 (LEAK ATP) ([3]; IPC hearts, peptide 50 µM): 24.0 ± 6.1 nmol O2 (µmol IU CS Activity)^−1; Oxygen flux, +Oligomycin [3, 4]: 42.8 ± 4.5 nmol O2 (µmol IU CS Activity)^−1; Oxygen flux, +ADP 50 µM [3, 4]: 68.9 ± 6.5 nmol O2 (µmol IU CS Activity)^−1; Oxygen flux, Glutamate + Maleate [3, 4]: 16.6 ± 5.0 nmol O2 (µmol IU CS Activity)^−1; Oxygen flux, OXPHOS Saturating +ADP 2.5 mM [3, 4]: 89.2 ± 35.6 nmol O2 (µmol IU CS Activity)^−1; Oxygen flux, State 4 (LEAK ATP) [3, 4]: 23.8 ± 5.2 nmol O2 (µmol IU CS Activity)^−1; Oxygen flux, +Oligomycin [3, 5]: 43.5 ± 2.6 nmol O2 (µmol IU CS Activity)^−1; Oxygen flux, +ADP 50 µM [3, 5]: 75.1 ± 11.3 nmol O2 (µmol IU CS Activity)^−1; Oxygen flux, Glutamate + Maleate [3, 5]: 16.6 ± 2.6 nmol O2 (µmol IU CS Activity)^−1; Oxygen flux, OXPHOS Saturating +ADP 2.5 mM [3, 5]: 113.7 ± 12.9 nmol O2 (µmol IU CS Activity)^−1; Oxygen flux, State 4 (LEAK ATP) [3, 5]: 22.1 ± 1.6 nmol O2 (µmol IU CS Activity)^−1; Oxygen flux, +Oligomycin [3, 6]: 44.6 ± 5.1 nmol O2 (µmol IU CS Activity)^−1; Oxygen flux, +ADP 50 µM [3, 6]: 78.9 ± 14.0 nmol O2 (µmol IU CS Activity)^−1; Oxygen flux, Glutamate + Maleate [3, 6]: 18.2 ± 0.9 nmol O2 (µmol IU CS Activity)^−1; Oxygen flux, OXPHOS Saturating +ADP 2.5 mM [3, 6]: 115.3 ± 8.7 nmol O2 (µmol IU CS Activity)^−1; Oxygen flux, State 4 (LEAK ATP) [3, 6]: 24.8 ± 3.0 nmol O2 (µmol IU CS Activity)^−1
